This passage reports IC50, Activity and EC50 results from ChEMBL document CHEMBL1150994, “The chemical synthesis of large random peptide libraries and their use for the discovery of ligands for macromolecular acceptors” (Bioorg Med Chem Lett, 1993).

SMILES strings stand for the structures. The source made the active and inactive calls. No cut-off for these calls is given here. Where a SMILES comes first, the peptide text is derived from it. [ ]: non-standard residue; d: D form. βAla = NCCC(=O)O

Assay [1] relates to Monoclonal antibody (mAb) 3E7. The assay is described as follows: Affinity towards anti-beta-endorphin MAb(Clone 3-E7) using [3H][Leu5]-enkephalin as labeled ligand.
Assay [2] relates to Monoclonal antibody (mAb) 3E7. Put plainly: Affinity towards anti-beta-endorphin MAb(Clone 3-E7) using [3H][Leu5]-enkephalin as labeled ligand at 10 uM concentration; not active.
For assay [3], the system named is Monoclonal antibody (mAb) 3E7. The assay is described as follows: Affinity of compound towards anti-beta-endorphin MAb(Clone 3-E7) using [3H]-[Leu5]-enkephalin as labeled ligand.

`CC(C)C[C@H](NC(=O)[C@H](C)NC(=O)CNC(=O)[C@@H](N)Cc1ccc(O)cc1)C(=O)N[C@@H](CCC(N)=O)C(=O)O` (H-YGALQ-OH) gave an IC50 in assay [1] of 1980 nM. For the same molecule, in assay [2], the outcome was inactive.
Turning to `CSCC[C@H](NC(=O)[C@@H]1CCCN1C(=O)[C@H](C)NC(=O)CNC(=O)[C@@H](N)Cc1ccc(O)cc1)C(=O)O` (H-YGAPM-OH), the EC50 in assay [3] amounted to 52 nM.
In turn, `C[C@H](NC(=O)[C@H](Cc1ccccc1)NC(=O)CNC(=O)CNC(=O)[C@@H](N)Cc1ccc(O)cc1)C(=O)O` (H-YGGFA-OH) registered an IC50 in assay [1] of 32.9 nM. In assay [2], the result was inactive.
Regarding `C[C@@H](O)[C@H](NC(=O)[C@H](Cc1ccccc1)NC(=O)CNC(=O)CNC(=O)[C@@H](N)Cc1ccc(O)cc1)C(=O)O` (H-YGGFT-OH), the 50% inhibitory concentration (IC50) in assay [1] amounted to 36.9 nM. In assay [2], the outcome was inactive.
Molecule `C[C@@H](O)[C@H](NC(=O)[C@H](Cc1ccccc1)NC(=O)CNC(=O)CNC(=O)[C@@H](N)Cc1ccc(O)cc1)C(=O)NCCC(=O)O` (H-YGGFT[βAla]-OH) displayed an IC50 in assay [1] of 50.6 nM.
For `CC(C)C[C@H](NC(=O)CNC(=O)CNC(=O)[C@@H](N)Cc1ccc(O)cc1)C(=O)N[C@@H](CO)C(N)=O` (H-YGGLS-NH2), the IC50 in assay [1] is 991 nM.
Turning to `CC(C)C[C@H](NC(=O)CNC(=O)CNC(=O)[C@@H](N)Cc1ccc(O)cc1)C(=O)N[C@@H](CO)C(=O)O` (H-YGGLS-OH), the midpoint of inhibition in assay [1], the IC50, lay at 726 nM. The result in assay [2] was inactive.
Turning to `CC(C)C[C@H](NC(=O)CNC(=O)CNC(=O)[C@@H](N)Cc1ccc(O)cc1)C(=O)N[C@@H](CO)C(=O)NCCC(N)=O` (H-YGGLS[βAla]-NH2), the IC50 in assay [1] stood at 1150 nM.
On the same count and under the same terms, then `CC(C)C[C@H](NC(=O)CNC(=O)CNC(=O)[C@@H](N)Cc1ccc(O)cc1)C(=O)N[C@@H](CO)C(=O)NCCC(=O)O` (H-YGGLS[βAla]-OH), with 916 nM; and `CSCC[C@H](NC(=O)CNC(=O)CNC(=O)[C@@H](N)Cc1ccc(O)cc1)C(=O)N[C@H](C(N)=O)C(C)C` (H-YGGMV-NH2), with 14000 nM.
`CSCC[C@H](NC(=O)CNC(=O)CNC(=O)[C@@H](N)Cc1ccc(O)cc1)C(=O)N[C@H](C(=O)O)C(C)C` (H-YGGMV-OH) had an IC50 in assay [1] of 8780 nM. In addition, the result in assay [2] was inactive.
Turning to `CSCC[C@H](NC(=O)CNC(=O)CNC(=O)[C@@H](N)Cc1ccc(O)cc1)C(=O)N[C@H](C(=O)NCCC(N)=O)C(C)C` (H-YGGMV[βAla]-NH2), inhibition in assay [1] was half-maximal at 7160 nM (IC50).
In the case of `CSCC[C@H](NC(=O)CNC(=O)CNC(=O)[C@@H](N)Cc1ccc(O)cc1)C(=O)N[C@H](C(=O)NCCC(=O)O)C(C)C` (H-YGGMV[βAla]-OH), the 50% inhibitory concentration (IC50) in assay [1] is 5140 nM.
With `CC(C)C[C@H](NC(=O)[C@H](Cc1ccccc1)NC(=O)CNC(=O)CNC(=O)[C@@H](N)Cc1ccc(O)cc1)C(N)=O` [[LEU5]ENKEPHALIN], the IC50 in assay [1] is 27.3 nM.

As a reminder, the IC50 is the concentration at which inhibition is half-maximal. A low value points to higher potency. One may read the EC50 as the concentration at which the effect is half-maximal. Read a low EC50 as greater potency.
